Source: US12091425B2 (AMGEN INC., priority 2016, dated 2024)

How the values were obtained:
[1] = target: T1, Mcl-1/Bim interaction, recombinant human Mcl-1 (171-327) (Homo sapiens, UniProt Q07820); experiment: Cell free Mcl-1: Bim Affinity Assay (Mcl-1 HTRF); format: binding
T1 construct: made in house
In short: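 Read-out is time-resolved FRET after overnight incubation, using a biotin-labelled peptide from human Bim (51-76) as the binding partner; IC50 was derived from competition curves.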

[2] = tested on: OPM-2 human multiple myeloma cell line; experiment: Cell Viability Assay (OPM-2 10 FBS); format: cell-based; details: OPM-2 cells, CellTiter-Glo
In short: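 OPM-2 myeloma cells, 3000/well in medium with 10% FBS, exposed to serially diluted compounds for 16 h at 37° C./5% CO2. Viability read by CellTiter-Glo luminescence; IC50 from 4-parameter logistic fit.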

[3] = TR-FRET, 0.1 nM Mcl-1 (171-327), 0.05 nM biotin-Bim (51-76)
[4] = Homo sapiens, OPM-2, 16 h, 16 h incubation
[5] = cell free Mcl-1:Bim TR-FRET, recombinant human Mcl-1 (171-327)
[6] = Homo sapiens, OPM-2, 16 h, 16 h

T1 sequence (Q07820 171-327): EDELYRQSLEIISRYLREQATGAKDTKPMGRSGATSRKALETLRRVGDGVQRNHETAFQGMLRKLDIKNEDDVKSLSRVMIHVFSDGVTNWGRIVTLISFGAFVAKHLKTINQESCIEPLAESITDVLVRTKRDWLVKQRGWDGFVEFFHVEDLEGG

Molecule | IC50 [1, 3] [µM] | IC50 [2, 4] [µM] | IC50 [1, 5] [µM] | IC50 [2, 6] [µM] | IC50 ([2]; 16 h) [µM]
COCCN1CCC/C=C/[C@H](O)[C@@H]2CC[C@H]2CN2C[C@@]3(CCCc4cc(Cl)ccc43)COc3ccc(cc32)C(=O)NS1(=O)=O [Example 665, (1S,3′R,6′R,7′S,8′E)-6-chloro-7′-hydroxy-13′-(2-methoxyethyl)-3,4-dihydro-2H,16′H-spiro[naphthalene-1,23′-[21]oxa[14]thia[1,13,15]triazatetracyclo[15.7.2.0^3,6.0^20,25]hexacosa[8,17,19,25]tetraen]-16′-one 14′,14′-dioxide] | – | – | 0.00289 | 1.31 | –
O=C1NS(=O)(=O)[C@@H](CCS(=O)(=O)Cc2ccccc2)CC/C=C/[C@H](O)[C@@H]2CC[C@H]2CN2C[C@@]3(CCCc4cc(Cl)ccc43)COc3ccc1cc32 (single isomer, unassigned) [Example 162] | 0.000978 | – | – | – | 8.4
CC[C@@H]1CC/C=C/[C@H](OCc2nnn(C)n2)[C@@H]2CC[C@H]2CN2C[C@@]3(CCCc4cc(Cl)ccc43)COc3ccc(cc32)C(=O)NS1(=O)=O [Example 987, (1S,3′R,6′R,7′S,8′E,12′R)-6-chloro-12′-ethyl-7′-((2-methyl-2H-tetrazol-5-yl)methoxy)-3,4-dihydro-2H,15′H-spiro[naphthalene-1,22′-[20]oxa[13]thia[1,14]diazatetracyclo[14.7.2.0^3,6.0^19,24]pentacosa [8,16,18,24]tetraen]-15′-one 13′,13′-dioxide] | 0.000616 | 0.393 | – | – | –
C[C@@H]1[C@@H](C)C/C=C/[C@H](OCCNc2ccccn2)[C@@H]2CC[C@H]2CN2C[C@@]3(CCCc4cc(Cl)ccc43)COc3ccc(cc32)C(=O)NS1(=O)=O [Example 12, (1S,3′R,6′R,7′S,8′E,11′S,12′R)-6-chloro-11′,12′-dimethyl-7′-(2-(2-pyridinylamino)ethoxy)-3,4-dihydro-2H,15′H-spiro[naphthalene-1,22′-[20]oxa[13]thia[1,14]diazatetracyclo[14.7.2.0˜3,6˜.0˜19,24˜]pentacosa[8,16,18,24]tetraen]-15′-one 13′,13′-dioxide] | 0.00337 | – | – | 0.404 | –
CC[C@@H]1C[C@@H](C)/C=C/[C@H](OCCN2CCOCC2)[C@@H]2CC[C@H]2CN2C[C@@]3(CCCc4cc(Cl)ccc43)COc3ccc(cc32)C(=O)NS1(=O)=O [Example 1026, (1S,3′R,6′R,7′S,8′E,10′R,12′R)-6-chloro-12′-ethyl-10′-methyl-7′-(2-(4-morpholinyl)ethoxy)-3,4-dihydro-2H,15′H-spiro[naphthalene-1,22′-[20]oxa[13]thia[1,14]diazatetracyclo[14.7.2.0^3,6.0^19,24]pentacosa [8,16,18,24]tetraen]-15′-one 13′,13′-dioxide] | 0.00113 | 0.288 | – | – | –
CO[C@H]1/C=C/C(CO)C(C)CS(=O)(=O)NC(=O)c2ccc3c(c2)N(C[C@@H]2CC[C@H]21)C[C@@]1(CCCc2cc(Cl)ccc21)CO3 (single isomer, unassigned) [Example 126] | 0.000448 | – | – | – | 0.496
(1S,3′R,6′R,9′R)-6-chloro-9′-methyl-3,4-dihydro-2H,15′H-spiro[naphthalene-1,22′-[20]oxa[13]thia[1,14]diazatetracyclo[14.7.2.0^3,6.0^19,24]pentacosa [16,18,24]trien]-15′-one 13′,13′-dioxide and (1S,3′R,6′R,9′S)-6-chloro-9′-methyl-3,4-dihydro-2H,15′H-spiro[naphthalene-[20]oxa[13]thia[1,14]diazatetracyclo[14.7.2.0^3,6.0^19,24]pentacosa [16,18,24]trien]-15′-one 13′,13′-dioxide [Example 276] | 0.0132 | – | – | – | 6.41
CC1CC(C)C(C)S(=O)(=O)NC(=O)c2ccc3c(c2)N(CC2CCC2C(O)C1)CC1(CCCc2cc(Cl)ccc21)CO3 (single isomer, unassigned) [Example 259] | 0.0444 | – | – | 23 | –
CC(=O)O[C@@H]1/C=C/C[C@H](C)[C@@H](C)S(=O)(=O)NC(=O)c2ccc3c(c2)N(C[C@@H]2CC[C@H]21)C[C@@]1(CCCc2cc(Cl)ccc21)CO3 [Example 1070, (1S,3′R,6′R,7′R,8′E,11′S,12′R)-6-chloro-11′,12′-dimethyl-13′,13′-dioxido-15′-oxo-3,4-dihydro-2H-spiro[naphthalene-1,22′-[20]oxa[13]thia[1,14]diazatetracyclo[14.7.2.0^3,6.0^19,24]pentacosa [8,16,18,24]tetraen]-7′-yl acetate] | 0.00107 | 1.23 | – | – | –
C[C@@H]1[C@@H](C)C/C=C/[C@H](OCC(=O)N(C)C)[C@@H]2CC[C@H]2CN2C[C@@]3(CCCc4cc(Cl)ccc43)COc3ccc(cc32)C(=O)NS1(=O)=O [Example 295, 2-(((1S,3′R,6′R,7′S,8′E,11′S,12′R)-6-chloro-11′,12′-dimethyl-13′,13′-dioxido-15′-oxo-3,4-dihydro-2H-spiro[naphthalene-1,22′-[20]oxa[13]thia[1,14]diazatetracyclo[14.7.2.0^3,6.0^19,24]pentacosa [8,16,18,24]tetraen]-7′-yl)oxy)-N,N-dimethylacetamide] | 0.00019 | – | – | 0.151 | –
O=C1NS(=O)(=O)[C@@H]2CCC[C@@H](CC[C@H](O)[C@@H]3CC[C@H]3CN3C[C@@]4(CCCc5cc(Cl)ccc54)COc4ccc1cc43)C2 (single isomer, unassigned) [Example 107] | 0.000597 | – | – | – | 17.3
(1S,3′R,6′R,7′S,11′S,13′R)-6-chloro-13′-methyl-3,4-dihydro-2H,17′H-spiro[naphthalene-1,24′-[8,12,22]trioxa[15]thia[1,16]diazapentacyclo[16.7.2.1^7,11.0^36.0^21,26]octacosa[18,20,26]trien]-17′-one 15′,15′-dioxide [Example 920] | – | – | 0.00186 | – | 4.35
C[C@H]1CCCS(=O)(=O)NC(=O)c2ccc3c(c2)N(C[C@@H]2CC[C@H]2[C@@H](O)C1)C[C@@]1(CCCc2cc(Cl)ccc21)CO3 (single isomer, unassigned) [Example 241] | 0.00485 | – | – | – | 7.39

More lines, main results first:

IC50 [1, 3] [µM] | IC50 [2, 4] [µM] | IC50 [1, 5] [µM] | IC50 [2, 6] [µM] | Molecule | IC50 ([2]; 16 h) [µM]
0.000294 | 1.14 | – | – | C[C@@H]1[C@@H](C)S(=O)(=O)NC(=O)c2ccc3c(c2)N(C[C@@H]2CC[C@H]2[C@@H](O)CC[C@@H]1C)C[C@@]1(CCCc2cc(Cl)ccc21)CO3 [Example 1045, (1S,3′R,6′R,7′S,10′S,11′S,12′R)-6-chloro-7′-hydroxy-10′,11′,12′-trimethyl-3,4-dihydro-2H,15′H-spiro[naphthalene-1,22′-[20]oxa[13]thia[1,14]diazatetracyclo[14.7.2.0^3,6.0^19,24]pentacosa [16,18,24]trien]-15′-one 13′,13′-dioxide] | –
– | – | 0.00199 | 21.3 | CO[C@@H]1/C=C/[C@H](O)[C@@H]2CC[C@H]2CN2C[C@@]3(CCCc4cc(Cl)ccc43)COc3ccc(cc32)C(=O)NS(=O)(=O)CC1 [Example 536, (1S,3′R,6′R,7′S,8′E,10′S)-6-chloro-7′-hydroxy-10′-methoxy-3,4-dihydro-2H,15′H-spiro[naphthalene-1,22′-[20]oxa[13]thia[1,14]diazatetracyclo[14.7.2.0^3,6.0^19,24]pentacosa [8,16,18,24]tetraen]-15′-one 13′,13′-dioxide] | –
0.000275 | – | – | 0.111 | C[C@@H]1CC/C=C/[C@H](OCCN2CCOCC2)[C@@H]2CC[C@H]2CN2C[C@@]3(CCCc4cc(Cl)ccc43)COc3ccc(cc32)C(=O)NS1(=O)=O [Example 418, (1S,3′R,6′R,7′S,8′E,12′R)-6-chloro-12′-methyl-7′-(2-(4-morpholinyl)ethoxy)-3,4-dihydro-2H,15′H-spiro[naphthalene-1,22′-[20]oxa[13]thia[1,14]diazatetracyclo[14.7.2.0^3,6.0^19,24]pentacosa [8,16,18,24]tetraen]-15′-one 13′,13′-dioxide] | –
0.00129 | – | – | 2.41 | Cc1cc(CO[C@H]2/C=C/CC[C@@H](C)S(=O)(=O)NC(=O)c3ccc4c(c3)N(C[C@@H]3CC[C@H]32)C[C@@]2(CCCc3cc(Cl)ccc32)CO4)no1 [Example 411, (1S,3′R,6′R,7′S,8′E,12′R)-6-chloro-12′-methyl-7′-((5-methyl-3-isoxazolyl)methoxy)-3,4-dihydro-2H,15′H-spiro[naphthalene-1,22′-[20]oxa[13]thia[1,14]diazatetracyclo[14.7.2.0^3,6.0^19,24]pentacosa [8,16,18,24]tetraen]-15′-one 13′,13′-dioxide] | –
0.000496 | – | – | 0.524 | CC(C)NC(=O)CO[C@H]1/C=C/C[C@H](C)[C@@H](C)S(=O)(=O)NC(=O)c2ccc3c(c2)N(C[C@@H]2CC[C@H]21)C[C@@]1(CCCc2cc(Cl)ccc21)CO3 [Example 296, 2-(((1S,3′R,6′R,7′S,8′E,11′S,12′R)-6-chloro-11′,12′-dimethyl-13′,13′-dioxido-15′-oxo-3,4-dihydro-2H-spiro[naphthalene-1,22′-[20]oxa[13]thia[1,14]diazatetracyclo[14.7.2.0^3,6.0^19,24]pentacosa [8,16,18,24]tetraen]-7′-yl)oxy)-N-(1-methylethyl)acetamide] | –
– | – | 0.00113 | – | N#CCC[C@H]1CC/C=C/[C@H](O)[C@@H]2CC[C@H]2CN2C[C@@]3(CCCc4cc(Cl)ccc43)COc3ccc(cc32)C(=O)NS1(=O)=O (single isomer, unassigned) [Example 614] | 8.07
0.000276 | – | – | 2.64 | C[C@@H]1CC/C=C/[C@H](OC[C@H](O)CO)[C@@H]2CC[C@H]2CN2C[C@@]3(CCCc4cc(Cl)ccc43)COc3ccc(cc32)C(=O)NS1(=O)=O (mixture of isomers) [Example 415] | –
